Laboratory results taken from US20240008971A1, “Ophthalmic Implant” (Nacuity Pharmaceuticals, Inc., priority 2022, published 2024).
“Also recorded” adds a separate entry of the source.

Key:
[1] = biological target: glutamate cysteine ligase (GCL, EC 6.3.2.2); conditions: read-out: Ki (nonallosteric competitive inhibition of GCL); cited from earlier work
[2] = system: retinas of diabetic rats; conditions: cited from earlier work
[3] = oral dose of 600 mg in humans; cited from earlier work
[4] = system: H2O2-induced cataract in isolated porcine lens; assay: H2O2-induced cataract in isolated porcine lens; format: cell-based, pigs; conditions: for H2O2-induced cataract: 24 hours pre-incubation, then H2O2 plus GO 6 hours
Description: Method: Lenses were harvested from fresh eyes from pigs. These lenses were first incubated in 4-5 mL TC-199 medium and 1% pig serum in a 12-well plate for two hours. At the end of the incubation, lenses were imaged under darkfield microscopy and only clear, transparent lenses were used for further experimentation. Lens were pre-incubated with NAC, NACA, diNACA for 24 hours. After the pretreatment, the lenses were transferred to media containing hydrogen peroxide (H2O2) plus GO for maintaining a constant H2O2 level during incubation similarly to a published method (Wang et al., 1997). At the end of the 6-hour incubation, lenses were imaged under darkfield microscopy (FIG. 3).

[5] = system: rd10 mice; conditions: cited from earlier work
[6] = system: isolated rat lens; assay: Effect of NACA or diNACA alone on rat lens transparency; format: cell-based, Wistar rats; conditions: 10 mM, no oxidative agent
Description: (§1) Lenses were extracted from 3-week-old male or female Wistar rats using an existing Animal Ethics Approval for tissue collection. Rats were euthanized using CO2, eyes were enucleated and lenses dissected from the globe and incubated in either Dulbecco's modified eagle's medium (low glucose; DMEM; Savion et al., 2019) or Media 199, no phenol red with Glutamine, with 1% penicillin, streptomycin, neomycin mixture for 6 hours, under normoxic conditions with 5% CO2. At the end of the 6-hour incubation, lenses were imaged under darkfield and brightfield microscopy and only clear, transparent lenses were used for further experimentation.
(§2) Control group: Lenses were incubated for a further 18 hours at which time, darkfield and brightfield images were taken. Lenses were placed in fresh media and then incubated for another 24 hours in DMEM or M199 with 1% PSN. Images were then taken to assess lens transparency.
(§3) 10 mM diNACA pre-treatment group: After the initial 6-hour incubation, clear lenses were cultured in 10 mM diNACA (NPI-002) for 18 hours. Images were taken, and then lenses were placed in fresh media containing 1 μg/mL of glucose oxidase (GO). Lenses were then incubated for a further 24 hours, after which images were taken to assess lens transparency
(§4) 10 mM NACA pre-treatment group: After the initial 6-hour incubation, clear lenses were cultured in 10 mM NACA (NPI-001) for 18 hours. Images were taken, and then lenses placed in fresh media containing 1 μg/mL of GO. Lenses were then incubated for a further 24 hours, after which images were taken to assess lens transparency

[7] = system: GO-induced cataract in isolated rat lens; assay: GO-induced cataract in isolated rat lens; format: cell-based, Wistar rats; conditions: for lens opacities after GO-cataract induction: 10 mM pre-treatment 18 hours, then 1 μg/mL GO 24 hours, vs GO-cataract induction alone; for visibility of underlying grid after GO-cataract induction: 10 mM pre-treatment, then GO, vs GO group
Description: as §1, §2, §3, §4
Method: Isolated rat lenses were pre-treated with NACA or diNACA followed by GO.

[8] = Repeated dose topical ocular administration in rabbit: NACA in aqueous humor (LC-MS); format: in vivo, Dutch Belted rabbits
Description: A study was conducted to evaluate effects of diNACA or NACA topical ocular dosing in rabbit. Ophthalmic formulations were developed containing either 1% diNACA or 1% NACA that were used for repeated topical ocular instillation to Dutch Belted rabbits. Three animals per group were dosed four times a day at approximately 8:00 AM, 11:00 AM, 2:00 PM, and 4:00 PM on Days 1-6, and once on Day 7 at approximately 8:00 AM, via bilateral topical administration with each test article. Ocular tolerability was assessed at baseline and prior to the first daily dose by means of scoring chemosis, discharge, and hyperemia (Draize scoring). Ocular tissue was harvested at necropsy (Day 7). A qualified analytical LC-MS method was developed and used to quantitate NACA levels in aqueous humor (AH).

[9] = system: rabbit; assay: NPI-002 IVT implant single dose 3-week safety study in rabbit; format: in vivo, New Zealand White rabbits; conditions: resolved by Day 23, associated with 22-gauge needle injection procedure
Description: A study was conducted to evaluate intravitreal injection of di-NACA as suspension or implant and NACA solution in rabbit. The objectives were to assess safety and whether the implant could deliver diNACA, NACA, and NAC to ocular tissues. A sterile intravitreal implant containing diNACA was prepared (Formulation 1896-08, a fast-releasing implant; FIG. 7). Female New Zealand White rabbits were administered two NPI-002 IVT implants per eye (total dose of NPI-002, 0.8 mg/eye). One group of animals received IVT placebo implants without any test article.
Prior to placement on study, an ophthalmic examination was conducted on each rabbit including slit-lamp biomicroscopy and indirect ophthalmoscopy. Ocular findings were scored according to a modified McDonald-Shadduck Scoring.
Clinical ophthalmic examinations were performed at baseline and on Days 8 and 23 post-dose. General health observations were performed daily. Body weights were recorded at baseline and prior to termination.
Sterile NPI-002 or placebo IVT implants were provided pre-loaded in 22 G beveled needle with wire plunger (1 implant/needle) and injected into VH. NPI-002 suspension and NPI-001 solution were prepared in sterile phosphate buffer and injected into VH.
Animals were euthanized on Day 8, 15, or 23, and ocular tissue was collected and […]

N[C@@H](CCC(=O)N[C@@H](CS)C(=O)NCC(=O)O)C(=O)O [GSH, c-L-glutamyl-L-cysteinyl-glycine]
Ki [1]: 2300 µM

CC(=O)N[C@@H](CS)C(=O)O [NAC, N-acetylcysteine]
retinal pathological changes (retinopathy) ([2]; 3 and 5 months): alleviated the pathological changes | reactive oxygen species contents in the retinas ([2]; most significantly at 5 months): decreased reactive oxygen species | VEGF and ICAM-1 expression in retinal blood vessels ([2]; returned to basal levels after 5-month treatment): up-regulation was attenuated | time after administration at which no NAC is detectable [3]: 10 to 12 h | H2O2-induced cataract [4]: dose-dependently prevented H2O2-induced cataract | oxidative damage, cone survival and function ([5]; rd10 mice, NAC in drinking water, vs untreated): dose-dependent, statistically significant reduction in oxidative damage and improvements in cone survival and function

CC(=O)N[C@@H](CSSC[C@H](NC(C)=O)C(N)=O)C(N)=O [diNACA, (2R,2R′)-3,3′-disulfanediyl bis(2-acetamidopropanamide)]
lens transparency after compound alone [6]: remained absolutely clear and transparent; also recorded: tolerated exposure to diNACA better than NACA | lens transparency after compound alone ([6]; listed as NPI-002): maintained lens transparency slightly better than NPI-001 (NACA) alone | lens opacities after GO-cataract induction [7]: reduced lens opacities | lens opacities after GO-cataract induction ([7]; listed as NPI-002): prevented oxidative-induced cataract | visibility of underlying grid after GO-cataract induction [7]: improved grid visibility | ocular penetration following topical ocular dosing [8]: penetrates the eye | clinical ophthalmic examination findings on Day 8 [9]: Mild to moderate conjunctival congestion, swelling and discharge | H2O2-induced cataract [4]: dose-dependently prevented H2O2-induced cataract | H2O2-induced cataract ([4]; listed as NPI-002): prevented oxidative-induced cataract | protective effects on the lens as compared with NAC, NACA ([4]; H2O2-induced cataract): better protective effects on the lens

N-acetylcysteine amide [NACA]
lens transparency after compound alone [6]: developed a subtle thin rim opacity on the edge; also recorded: slight ring opacity developed | lens opacities after GO-cataract induction [7]: reduced opacities compared to cataract induction alone | visibility of underlying grid after GO-cataract induction [7]: more clearly visible | H2O2-induced cataract [4]: dose-dependently prevented H2O2-induced cataract | visual parameters ([5]; mouse model of RP): improve, to a greater extent than NAC, visual parameters | preservation of cone function and survival compared to NAC ([5]; rd10 mice, 7-fold lower dose than NAC): greater preservation of cone function and survival
